Measured values: US10105367B2, “Therapeutic thiophene-, furan-, and pyridine-fused azolopyrimidin-5-(6h)-ones” (Dart Neuroscience (Cayman) Ltd., priority 2012, dated 2018)

Molecular target: human PDE1B (Homo sapiens (Human), UniProt Q01064)
Test: PDE1B inhibitory assay (IMAP TR-FRET)
Conditions: 200 nM FAM-cAMP, Calmodulin, CaCl2; for PDE1B pIC50: negative log of half-maximal molar inhibitory concentration; for IC50: PDE1B pIC50, negative log of half-maximal molar inhibitory concentration

SMILES | PDE1B pIC50 | IC50
COc1ccc(Cn2c(=O)n3ncnc3c3c4c(sc32)CN(Cc2ncccn2)CCC4)cc1 [Example 145] | >7 | 
COc1ccc(Cn2c(=O)n3ncnc3c3c4c(sc32)CN(Cc2ccccn2)CCC4)cc1 [Example 146] | >7 | 
COc1ccc(Cn2c(=O)n3ncnc3c3c4c(sc32)CN(CC2CCOCC2)CCC4)cc1 [Example 147] | >7 | 
COc1ccc(Cn2c(=O)n3ncnc3c3c4c(sc32)N(CC2CCOCC2)CCC4)cc1 [Example 148] | >7 | 
COc1ccc(Cn2c(=O)n3ncnc3c3c4c(sc32)N(CC2CCCOC2)CCC4)cc1 (centres unmarked) [Example 149] | >7 | 
COc1ccc(Cn2c(=O)n3ncnc3c3c4c(sc32)N(CC2CCOC2)CCC4)cc1 (centres unmarked) [Example 150] | >7 | 
COc1ccc(Cn2c(=O)n3ncnc3c3c4c(sc32)CN(C(C)C(F)F)CC4)cc1 (centres unmarked) [Example 151] |  | 100 to 1000 nM
COc1ccc(Cn2c(=O)n3ncnc3c3c4c(sc32)N(Cc2ccc(Cl)cc2)CCC4)cc1 [Example 152] |  | 100 to 1000 nM
COc1ccc(Cn2c(=O)n3ncnc3c3c4c(sc32)N(Cc2ccc(Cl)cc2)CCC4)cc1OC [Example 153] |  | 1000 to 10000 nM
COc1ccc(Cn2c(=O)n3ncnc3c3c4c(sc32)N(Cc2cccc(Cl)c2)CCC4)cc1OC [Example 155] |  | 1000 to 10000 nM
COc1ccc(Cn2c(=O)n3ncnc3c3c4c(sc32)CN(CC2CCOCC2)CC4(F)F)c(F)c1 [Example 156] | >7 | 
O=C(c1cnccn1)N1CCc2c(sc3c2c2ncnn2c(=O)n3Cc2ccc(Cl)cc2)C1 [Example 157, 6-(4-Chlorobenzyl)-9-(pyrazine-2-carbonyl)-8,9,10,11-tetrahydropyrido[4′,3′:4,5]thieno[3,2-e][1,2,4]triazolo[1,5-c]pyrimidin-5(6H)-one] | >7 | 
COc1ccc(Cn2c(=O)n3ncnc3c3c4c(sc32)CN(C(=O)C2CC2)CC4)cc1 [Example 159] | >7 | 
COc1ccc(Cn2c(=O)n3ncnc3c3c4c(sc32)CN(S(C)(=O)=O)CC4)cc1 [Example 162] | >7 | 
COc1ccc(Cn2c(=O)n3ncnc3c3c4c(sc32)CN(C(=O)C2CCN(C)C2)CC4)cc1 (centres unmarked) [Example 163] |  | 100 to 1000 nM
O=C(C1CC1)N1CCc2c(sc3c2c2ncnn2c(=O)n3Cc2ccc(Cl)cc2F)C1 [Example 164] | >7 | 
COc1ccc(Cn2c(=O)n3ncnc3c3c4c(sc32)CN(C(=O)C2CCOC2)CC4(F)F)cc1 (centres unmarked) [Example 166] | >7 | 
COc1ccc(Cn2c(=O)n3ncnc3c3c4c(sc32)CN(C(=O)C2CCOC2)CC4)c(F)c1 (centres unmarked) [Example 167] | >7 | 
COc1ccc(Cn2c(=O)n3ncnc3c3c4c(sc32)CN(C(=O)C2CC2)CC4)c(F)c1 [Example 168] | >7 | 
COc1ccc(Cn2c(=O)n3ncnc3c3c4c(sc32)CN(C(=O)[C@@H]2CCOC2)CC4)cc1 [Example 169] | >7 | 
COc1ccc(Cn2c(=O)n3ncnc3c3c4c(sc32)CN(C(=O)C2CCOC2)CC4)cc1 (centres unmarked) [Example 170] | >7 | 
COc1ccc(Cn2c(=O)n3ncnc3c3c4c(sc32)N(C(=O)C2CC2)CCC4)cc1 [Example 174] | >7 | 
COc1ccc(Cn2c(=O)n3ncnc3c3c4c(sc32)N(C(=O)C2CCOC2)CCC4)cc1 (centres unmarked) [Example 175] | >7 | 
COc1ccc(Cn2c(=O)n3ncnc3c3c4c(sc32)N(C(=O)c2ccccc2)CCC4)cc1OC [Example 176] |  | 1000 to 10000 nM

SMILES | PDE1B pIC50 | IC50
COc1ccc(Cn2c(=O)n3ncnc3c3c4c(sc32)CN(c2ccccn2)CC4)cc1 [Example 179, 6-(4-Methoxybenzyl)-9-(pyridin-2-yl)-8,9,10,11-tetrahydropyrido[4′,3′:4,5]thieno[3,2-e][1,2,4]triazolo[1,5-c]pyrimidin-5(6H)-one] | >7 | 
COc1ccc(Cn2c(=O)n3ncnc3c3c4c(sc32)CN(CC2CNCCO2)CC4)cc1 (centres unmarked) [Example 180, 6-(4-Methoxybenzyl)-9-(morpholin-2-ylmethyl)-8,9,10,11-tetrahydropyrido[4′,3′:4,5]thieno[3,2-e][1,2,4]triazolo[1,5-c]pyrimidin-5(6H)-one] |  | 100 to 1000 nM
COc1ccc(Cn2c(=O)n3ncnc3c3c4c(sc32)CN(C(=O)C2CCNC2)CC4)cc1 (centres unmarked) [Example 181] |  | 100 to 1000 nM
COc1ccc(Cn2c(=O)n3ncnc3c3c4c(sc32)CN(CC2CCNCC2)CC4)cc1 [Example 182] |  | 100 to 1000 nM
COc1ccc(Cn2c(=O)n3nccc3c3cc(CN4CCOCC4)sc32)cc1 [Example 183, 4-(4-Methoxybenzyl)-2-(morpholinomethyl)pyrazolo[1,5-c]thieno[3,2-e]pyrimidin-5(4H)-one] |  | 100 to 1000 nM
COc1ccc(Cn2c(=O)n3nccc3c3cc(CN4C[C@@H](C)O[C@@H](C)C4)sc32)cc1 [Example 184] | >7 | 
COc1ccc(Cn2c(=O)n3ncnc3c3cc(Br)cnc32)cc1 [Example 185, 9-Bromo-6-(4-methoxybenzyl)pyrido[3,2-e][1,2,4]triazolo[1,5-c]pyrimidin-5(6H)-one] |  | 100 to 1000 nM
COc1ccc(Cn2c(=O)n3ncnc3c3ncc(Br)cc32)cc1 [Example 186] |  | 1000 to 10000 nM
COc1ccc(Cn2c(=O)n3ncnc3c3ccc(C(OC)OC)nc32)cc1 [Example 187] |  | 1000 to 10000 nM
COc1ccc(Cn2c(=O)n3ncnc3c3nc(Br)cnc32)cc1 [Example 188] |  | 100 to 1000 nM
COc1ccc(Cn2c(=O)n3ncnc3c3cc(-c4ccc(OC)c(OC)c4)cnc32)cc1 [Example 189, 9-(3,4-Dimethoxyphenyl)-6-(4-methoxybenzyl)pyrido[3,2-e][1,2,4]triazolo[1,5-c]pyrimidin-5(6H)-one] | >7 | 
COc1ccc(Cn2c(=O)n3ncnc3c3cc(-c4ccc(OC)nc4)cnc32)cc1 [Example 190] |  | 100 to 1000 nM
COc1ccc(Cn2c(=O)n3ncnc3c3cc(-c4cccnc4OC)cnc32)cc1 [Example 191] | >7 | 
COc1ccc(Cn2c(=O)n3ncnc3c3cc(-n4nc(C)ccc4=O)cnc32)cc1 [Example 192, 6-(4-Methoxybenzyl)-9-(3-methyl-6-oxopyridazin-1(6H)-yl)pyrido[3,2-e][1,2,4]triazolo[1,5-c]pyrimidin-5(6H)-one] |  | 100 to 1000 nM
COc1ccc(Cn2c(=O)n3ncnc3c3cc(N4CCN(C5CC5)CC4)cnc32)cc1 [Example 193, 9-(4-Cyclopropylpiperazin-1-yl)-6-(4-methoxybenzyl)pyrido[3,2-e][1,2,4]triazolo[1,5-c]pyrimidin-5(6H)-one] |  | 100 to 1000 nM
COc1ccc(Cn2c(=O)n3ncnc3c3cc(N[C@H]4CCCC[C@@H]4N)cnc32)cc1 [Example 194] |  | 1000 to 10000 nM
COc1ccc(Cn2c(=O)n3ncnc3c3nc(N(C)C4CCN(C)CC4)cnc32)cc1 [Example 195] |  | 1000 to 10000 nM
COc1ccc(Cn2c(=O)n3ncnc3c3nc(N(C)CCN(C)C)cnc32)cc1 [Example 196] |  | 1000 to 10000 nM
COCCN1CCN(c2cnc3c(c2)c2ncnn2c(=O)n3Cc2ccc(OC)cc2)CC1 [Example 197] |  | 100 to 1000 nM
COc1ccc(Cn2c(=O)n3ncnc3c3cc(N4CCC(N(C)C)C4)cnc32)cc1 (centres unmarked) [Example 198] |  | 100 to 1000 nM
COc1ccc(Cn2c(=O)n3ncnc3c3cc(N4CCC(N(C)C)CC4)cnc32)cc1 [Example 199] |  | 100 to 1000 nM
COc1ccc(Cn2c(=O)n3ncnc3c3cc(N(C)C4CCOCC4)cnc32)cc1 [Example 200] |  | 100 to 1000 nM
COc1ccc(Cn2c(=O)n3ncnc3c3cc(N4C[C@@H](C)O[C@@H](C)C4)cnc32)cc1 [Example 201] |  | 100 to 1000 nM
